Measurements reported in patent publication US20260285849A1, “METHYLOPHIOPOGONONE A DERIVATIVE, AND PREPARATION AND USE THEREOF” (INSTITUTE OF MATERIA MEDICA, CHINESE ACADEMY OF MEDICAL …, priority 2022, published 2026).
Where two headings read alike, the source gives them in different places.

Columns and labels:
Assay type in all cases: in vivo
[1] = test system: mice with hypertensive heart disease induced by angiotensin II (AngII); design: unit not given here
Protocol: After male C57BL/6 mice were acclimated to the environment, they were randomly divided into 10 groups, namely the blank control group, the AngII model group, the AngII+telmisartan 10 mg/kg positive control group, the AngII+spironolactone 20 mg/kg positive control group, the AngII+Formula I (0.1, 0.5, 2 mg/kg) groups, and the AngII+Formula II (0.1, 0.5, 2 mg/kg) groups. The mice in the drug administration groups were intragastrically administered the corresponding doses of Formula I and Formula II compounds once a day at the same time. The mice in the positive control groups were intragastrically administered the corresponding doses of telmisartan and spironolactone once a day. The mice in the blank control group and the model group were given the same amount of solvent (0.5% CMC-Na solution). The administration volume was 10 mL/kg, and the administration was continuous for 14 days. From the 1st to the 13th day of drug administration, AngII modeling was carried out. The mice in the blank control group were subcutaneously injected with normal saline, and the mice in the other groups were subcutaneously injected with 1.44 mg/kg of AngII (modeling was carried out 2 h after drug administration), for a total of 13 times. […] Three mice were randomly selected from each group. The mice were placed in a fixator to expose the tail. The fixator was placed on a heating pad to maintain the normal body temperature of the mice. The root of the tail was passed through a pressurized tail cuff and fixed. Inflation and pressurization were started, and a measuring instrument was used to measure the systolic blood pressure (SBP). The blood pressure index of each animal was continuously measured 5 times, and the average value was taken.

[2] = test system: mice with hypertensive heart disease induced by angiotensin II (AngII); experiment: AngII-induced hypertensive heart disease mouse model: serum TNF-α (ELISA)
Protocol: (§1) After male C57BL/6 mice were acclimated to the environment, they were randomly divided into 10 groups, namely the blank control group, the AngII model group, the AngII+telmisartan 10 mg/kg positive control group, the AngII+spironolactone 20 mg/kg positive control group, the AngII+Formula I (0.1, 0.5, 2 mg/kg) groups, and the AngII+Formula II (0.1, 0.5, 2 mg/kg) groups. The mice in the drug administration groups were intragastrically administered the corresponding doses of Formula I and Formula II compounds once a day at the same time. The mice in the positive control groups were intragastrically administered the corresponding doses of telmisartan and spironolactone once a day. The mice in the blank control group and the model group were given the same amount of solvent (0.5% CMC-Na solution). The administration volume was 10 mL/kg, and the administration was continuous for 14 days. From the 1st to the 13th day of drug administration, AngII modeling was carried out. The mice in the blank control group were subcutaneously injected with normal saline, and the mice in the other groups were subcutaneously injected with 1.44 mg/kg of AngII (modeling was carried out 2 h after drug administration), for a total of 13 times. Detection of serum inflammatory factors: After the experiment, the animals were sacrificed by enucleation to obtain blood. The blood was left to stand at room temperature for 2 hours, and then centrifuged at 3500 rpm for 20 minutes to separate the serum. The content of serum TNF-α was determined according to the instructions of the ELISA kit.

[3] = test system: mice with hypertensive heart disease induced by angiotensin II (AngII); experiment: AngII-induced hypertensive heart disease mouse model: serum cAMP (ELISA)
Protocol: as §1, with “CAMP level:” for “inflammatory factors:”, “cAMP” for “TNF-α”

[4] = test system: mice with hypertensive heart disease induced by angiotensin II (AngII); experiment: AngII-induced hypertensive heart disease mouse model: serum BNP (ELISA)
Protocol: as §1, with “myocardial hypertrophy/heart failure biomarkers:” for “serum inflammatory factors:”, “BNP” for “TNF-α”

[5] = 0 d (before administration), 0.1 mg/kg group
[6] = 0 d (before administration), 0.5 mg/kg group
[7] = 0 d (before administration), 2 mg/kg group
[8] = 7 d, 0.1 mg/kg intragastric once a day, AngII 1.44 mg/kg s.c.
[9] = 7 d, 0.5 mg/kg intragastric once a day, AngII 1.44 mg/kg s.c.
[10] = 7 d, 2 mg/kg intragastric once a day, AngII 1.44 mg/kg s.c.
[11] = 14 d, 0.1 mg/kg intragastric once a day, AngII 1.44 mg/kg s.c.
[12] = 14 d, 0.5 mg/kg intragastric once a day, AngII 1.44 mg/kg s.c.
[13] = 14 d, 2 mg/kg intragastric once a day, AngII 1.44 mg/kg s.c.
[14] = 0.1 mg/kg intragastric once a day 14 days
[15] = 0.5 mg/kg intragastric once a day 14 days
[16] = 2 mg/kg intragastric once a day 14 days
[17] = 20 mg/kg intragastric once a day 14 days
[18] = 10 mg/kg intragastric once a day 14 days

Molecule `Cc1c(O)cc(O)c2c(=O)c(Cc3ccc4c(c3)OCO4)coc12` [Formula II, 3-(benzo[d][1,3]dioxol-5-ylmethyl)-5,7-dihydroxy-8-methyl-4H-chromen-4-one] has an SBP [1, 5] of 100.30 ± 7.37, an SBP [1, 6] of 102.43 ± 8.41 and an SBP [1, 7] of 101.27 ± 12.13. For the same molecule, the SBP [1, 8] was 105.73 ± 6.00, the SBP [1, 9] was 106.07 ± 1.22 and the SBP [1, 10] was 110.93 ± 5.78. It also gave an SBP [1, 11] of 110.13 ± 3.51, an SBP [1, 12] of 113.93 ± 3.51 and an SBP [1, 13] of 108.27 ± 7.29. For the same molecule, the TNF-α [2, 14] was 645.36 ± 87.50 ng/L, the TNF-α [2, 15] was 671.09 ± 80.55 ng/L and the TNF-α [2, 16] was 627.56 ± 98.89 ng/L. The cAMP [3, 14] was 24.81 ± 1.63 nmol/L, the cAMP [3, 15] was 26.38 ± 1.81 nmol/L and the cAMP [3, 16] was 24.42 ± 2.07 nmol/L. It also gave a BNP [4, 14] of 103.21 ± 16.09 pg/mL, a BNP [4, 15] of 101.08 ± 9.09 pg/mL and a BNP [4, 16] of 91.67 ± 15.39 pg/mL.
`O=c1c(Cc2ccc3c(c2)OCO3)coc2cc(O)cc(O)c12` [Formula I] showed an SBP [1, 5] of 102.13 ± 4.30, an SBP [1, 6] of 109.70 ± 5.67 and an SBP [1, 7] of 104.93 ± 9.21. For the same molecule, the SBP [1, 8] was 121.33 ± 3.19, the SBP [1, 9] was 109.80 ± 4.50 and the SBP [1, 10] was 107.73 ± 6.53. For the same molecule, the SBP [1, 11] was 107.60 ± 9.81, the SBP [1, 12] was 105.13 ± 7.10 and the SBP [1, 13] was 109.20 ± 5.19. For the same molecule, the TNF-α [2, 14] was 706.64 ± 91.15 ng/L, the TNF-α [2, 15] was 699.02 ± 55.58 ng/L and the TNF-α [2, 16] was 634.24 ± 98.58 ng/L. For the same molecule, the cAMP [3, 14] was 27.73 ± 3.03 nmol/L, the cAMP [3, 15] was 27.42 ± 1.12 nmol/L and the cAMP [3, 16] was 29.04 ± 5.17 ^ nmol/L. For the same molecule, the BNP [4, 14] was 112.93 ± 17.57 pg/mL, the BNP [4, 15] was 117.59 ± 13.78 pg/mL and the BNP [4, 16] was 102.97 ± 5.56 pg/mL.
`CC(=O)S[C@@H]1CC2=CC(=O)CC[C@]2(C)[C@H]2CC[C@@]3(C)[C@@H](CC[C@@]34CCC(=O)O4)[C@H]12` [Spironolactone, reference compound] was tested, and the SBP ([1]; 0 d (before administration), 20 mg/kg group) was 106.13 ± 0.81, the SBP ([1]; 7 d, 20 mg/kg intragastric once a day, AngII 1.44 mg/kg s.c.) was 109.73 ± 6.81 and the SBP ([1]; 14 d, 20 mg/kg intragastric once a day, AngII 1.44 mg/kg s.c.) was 109.70 ± 4.20. For the same molecule, the TNF-α [2, 17] was 758.49 ± 72.35 ng/L, the cAMP [3, 17] was 29.34 ± 3.04 ^ nmol/L and the BNP [4, 17] was 129.92 ± 15.60 pg/mL.
In the case of `CCCc1nc2c(C)cc(-c3nc4ccccc4n3C)cc2n1Cc1ccc(-c2ccccc2C(=O)O)cc1` [Telmisartan, reference compound], the SBP ([1]; 0 d (before administration), 10 mg/kg group) is reported as 104.13 ± 3.56, the SBP ([1]; 7 d, 10 mg/kg intragastric once a day, AngII 1.44 mg/kg s.c.) is reported as 91.20 ± 6.35^###& and the SBP ([1]; 14 d, 10 mg/kg intragastric once a day, AngII 1.44 mg/kg s.c.) is reported as 100.47 ± 7.68. For the same molecule, the TNF-α [2, 18] was 616.87 ± 70.42 ng/L, the cAMP [3, 18] was 25.18 ± 1.10 nmol/L and the BNP [4, 18] was 96.84 ± 7.34 pg/mL.
